Earlier results, collected in patent US20140220080A1, “IgA SECRETION PROMOTER” (MATSUTANI CHEMICAL INDUSTRY CO., LTD., priority 2013, published 2014).

Test system: IgA
Details: Patent Literature 1, 2; Non-Patent Literature 1-3

## OC[C@H]1O[C@@H](O[C@H]2[C@H](O)[C@@H](O)[C@@H](O[C@]3(CO)O[C@H](CO)[C@@H](O)[C@@H]3O)O[C@@H]2CO)[C@H](O)[C@@H](O)[C@H]1O [lactosucrose]
  action of promoting IgA secretion: have an action of promoting IgA secretion
